Tests used:
[1] = system: human promyelocytic leukemia HL-60; test: MTT method: cell growth suppressing / apoptosis-inducing activity; type: cell-based; conditions: for apoptosis-inducing activity of the non-heated solution: HL-60, 48 hours, MTT method; for apoptosis-inducing activity / cancer cell growth suppressing activity: HL-60, MTT method of Example 1, 48 hours
Experimental: Heated and non-heated substances of each of them were sterilized by a membrane filter of 0.22 μm to prepare samples for the apoptosis-inducing activity. Those samples were diluted with aseptic distilled water to an extent of 2-, 4-, 8-, 16- and 32-fold, their activity for suppressing the cell growth to the human promyelocytic leukemia HL-60 was measured as follows and their intensity or the apoptosis-inducing activity was compared.
Thus, 10 μl of each of the diluted solutions or 10 μl of aseptic distilled water were placed in a well of a 96-well microtiter plate. Then 90 μl of an RPMI 1640 medium (manufactured by Nissui) containing 10% of fetal bovine serum (manufactured by Gibco) which contained 5000 HL-60 cells (ATCC CCL240) were added thereto and an incubation was carried out at 37° C. for 48 hours in the presence of 5% carbon dioxide gas. After observing the shape of the cells under an optical microscope, 10 μl of a phosphate-buffered aqueous saline solution containing 5 mg/ml of 3-(4,5-dimethylthiazol-2-yl)-2,5-diphenyltetrazolium bromide (MTT; manufactured by Sigma), an incubation was continued for four hours more and state of growth of cells and formation of formazan produced in the cells were observed under a microscope. Further, 100 μl of 2-propanol containing 0.04N HCl were added thereto followed by well stirring and the absorbance at 590 nm was measured and used as a degree of growth of cells (an MTT method).
The solvent of the fraction was appropriately evaporated to substitute with a 50% aqueous solution of ethanol and the activity for suppressing the growth of cancer cells was measured by an MTT method mentioned in Example 1 except that the sample was diluted to a two-fold series using a 50% aqueous solution of ethanol and 2 μl of each of the diluted solutions or 2 μl of a 50% aqueous solution of ethanol were placed in a well of a flat-bottom 96-well microplate. Time for incubation was 16 hours.

HL-60 cells [2] = test: observation of apoptosis under an optical microscope; type: cell-based, human; conditions: HL-60, 24 hours
Experimental: (1) HL-60 cells (ATCC CCL-240) incubated at 37° C. in an RPMI 1640 medium (manufactured by BioWhittaker) containing 10% of fetal bovine serum (manufactured by JRH) treated at 56° C. for 30 minutes were suspended in an RPMI 1640 medium to make the concentration 2.5×10^5 cells/5 ml.
To 5 ml of this suspension were added 10 μl of 12.5 mM, 25 mM, 50 mM or 100 mM of a 70% ethanolic solution of 4,5-dihydroxy-2-pentenal prepared in Example 6-(1), 0.05 mM, 0.5 mM, 5 mM or 50 mM of a 70% ethanolic solution of 4-hydroxy-2-cyclopenten-1-[…] prepared in Example 6-(1), 5 mM, 10 mM or 20 mM of a 70% ethanolic solution of 4-(9-adeninyl)-2-cyclopenten-1-one prepared in Example 4-(4), 2.5 mM, 5 mM, 15 mM or 25 mM of a 70% ethanolic solution of 4-(9-guaninyl)-2-cyclopenten-1-one prepared in Example 4-(5), 75 mM, 150 mM or 300 mM of a 70% ethanolic solution of 1,5-epoxy-1-hydroxy-3-penten-2-one prepared in Example 5-(2) or 5 mM, 25 mM or 50 mM of a 70% ethanolic solution of 2-(trans-3,4-dihydroxy-1-butenyl)-4-(trans-2-formylvinyl)-1,3-dioxolane prepared in Example 6-(2) followed by incubating at 37° C. in the presence of 5% carbon dioxide gas for 24 hours.
Incidentally, such phenomena were not noted in the incubated cells to which […] of 70% ethanolic solution were added used as a control.

HL-60 cells [3] = test: Trypan Blue staining, survival rate; type: cell-based; conditions: Homo sapiens, HL-60, 24 hours, concentration where survival rate becomes 50%, read-out: Survival Rate50
Experimental: (3) The cells which were incubated for 24 hours by the same manner as in Example 9-(2) were stained with 0.4% Trypan Blue and observed under an optical microscope, numbers of viable cells which were not stained and of dead cells which were stained in blue were measured, concentration (survival rate50) of each of the samples where survival rate becomes 50% was determined and the result is given in Table 1.

HL-60 cells [4] = test: measurement of apoptosis cells using FACScan; type: cell-based, human; conditions: HL-60, 24 hours and 48 hours
Experimental: (2) HL-60 cells which were incubated on an RPMI 1640 medium containing 10% of fetal bovine serum processed at 56° C. for 30 minutes were suspended in an RPMI 1640 medium to make 2.5×10^5 cells/5 ml. […]

HL-60 cells [5] = test: analysis of fragmentation of DNA; type: cell-based, human
Experimental: (2) HL-60 cells which were incubated on an RPMI 1640 medium containing 10% of fetal bovine serum processed at 56° C. for 30 minutes were suspended in an RPMI 1640 medium to make 2.5×10^5 cells/5 ml.
To 5 ml the suspension were added 10 μl of 12.5 mM, 25 mM, 50 mM or 100 mM of a 70% ethanolic solution of 4,5-dihydroxy-2-pentenal, 0.05 mM, 0.5 mM, 5 mM or 50 mM of a 70% ethanolic solution of 4-hydroxy-2-cyclopenten-1-one, 5 mM, 10 mM or 20 mM of a 70% ethanolic solution of 4-(9-adeninyl)-2-cyclopenten-1-one prepared in Example 4-(4), 2.5 mM, 5 mM, 15 mM or 25 mM of a 70% ethanolic solution of 4-(9-guaninyl)-2-cyclopenten-1-one prepared in Example 4-(5) 75 mM, 150 mM or 300 mM of a 70% ethanolic solution of 1,5-epoxy-1-hydroxy-3-penten-2-one prepared in Example 5-(2) or 5 mM, 25 mM or 50 mM of a 70% ethanolic solution of 2-(trans-3,4-dihydroxy-1-butenyl)-4-(trans-2-formylvinyl)-1,3-dioxolane prepared in Example 6-(2) followed by incubating at 37° C. in the presence of 5% of carbon dioxide gas for 24 hours and 48 hours and the resulting cells were subjected to a measurement of apoptosis cells using FACScan by a method mentioned in pages 129-130 of “Experimental Protocol Series—Apoptosis Experiment Protocol” which was an extra issue of “Saibo Kogaku (Cell Technology)” (published by Shujunsha in 1994) and also to a measurement of analysis of fragmentation of DNA by a method mentioned in page 61-63 of “Biomanual UP Series—New Experimental Methods for Apoptosis” (published by Yodosha in 1995).

For O=C[C@@H](O)[C@H](O)[C@H](O)CO [D-(−)-arabinose], which “apoptosis-inducing activity of the non-heated solution” value [1] is on record?
Its value is “no apoptosis-inducing activity”.

With O=C[C@H](O)[C@@H](O)[C@@H](O)CO [L(+)-arabinose] as the compound, how does the “apoptosis-inducing activity of the non-heated solution” value [1] read?
Its value is “no apoptosis-inducing activity”.

For O=C1C=CCOC1O (centres unmarked) [1,5-epoxy-1-hydroxy-3-penten-2-one], which “final concentration at which aggregation of nuclei, reduction in size of the cells and formation of apoptic body were confirmed” value (HL-60 cells [2]) is on record?
Its value is no less than 625 µM.

And the IC50 (HL-60 cells [3])?
The IC50 was 438 µM.

What about the “final concentration at which apoptosis cells were confirmed” value (HL-60 cells [4]) of the same compound?
Its value is no less than 600 µM.

For NC(CCC(=O)NC(CSC1CC(=O)CC1O)C(=O)NCC(=O)O)C(=O)O (single isomer, unassigned) [peak 3], which “apoptosis-inducing activity / cancer cell growth suppressing activity” value [1] is on record?
Its value is “noted”.

For NC(CCC(=O)NC(CSC1CC(=O)CC1O)C(=O)NCC(=O)O)C(=O)O (single isomer, unassigned) [peak 1], which “apoptosis-inducing activity / cancer cell growth suppressing activity” value [1] is on record?
The value was “noted”.

For O=C[C@H](O)[C@@H](O)[C@H](O)CO [D(+)-xylose], which “apoptosis-inducing activity of the non-heated solution” value [1] is on record?
Its value is “no apoptosis-inducing activity”.

For Nc1ncnc2c1ncn2C1C=CC(=O)C1 (centres unmarked) [4-(9-adeninyl)-2-cyclopenten-1-one], which IC50 (HL-60 cells [3]) is on record?
The IC50 was 22.4 µM.

And the “fragmentation of DNA” value (HL-60 cells [5]; HL-60, 10 μM final concentration)?
Its value is “confirmed”.

What about the “fragmentation of DNA” value (HL-60 cells [5]; HL-60, 30 μM final concentration) of the same compound?
The value was “confirmed”.

Which “apoptosis-inducing activity of the non-heated solution” value [1] does the source give for O=C[C@H](O)[C@H](O)[C@H](O)CO [non-heated aqueous solution of D-ribose, D-ribose] here?
Its value is “no apoptosis-inducing activity”.

O=C1C=CC(O)C1O (centres unmarked) [4,5-dihydroxy-2-cyclopenten-1-one] was tested. Which “cancer cell growth suppressing activity and apoptic body formation” value ([1]; HL-60, MTT method of Example 4-(2), sample in 50% ethanol, 16 hours) did it give?
Its value is “confirmed”.

For O=CC[C@H](O)[C@H](O)CO [2-deoxy-D-ribose], which “apoptosis-inducing activity of the non-heated solution” value [1] is on record?
Its value is “no apoptosis-inducing activity”.

— patent US6809091B1, “Substances capable of inducing apoptosis” (Takara Bio Inc., priority 1998, dated 2004)
